Measurements from publication PMC8023712, “Carboxylesterase Activities and Protein Expression in Rabbit and Pig Ocular Tissues” (Molecular Pharmaceutics, 2021).

Legend:
[1] = test system: CES1 (rabbit ocular tissue homogenates); assay: DME hydrolysis in rabbit ocular tissue homogenates; conditions: for DME hydrolysis rate: 5 μM DME
Protocol: (§1) The hydrolysis of DME was monitored with slight modifications using the published bioluminescence-based assay[13],[21] where recombinant firefly luciferase enzyme was used to detect the D-luciferin that formed in the reaction mixture. The DME hydrolysis reaction was done in white-coated 96-well plates (Thermo Scientific Sterilin Microtiter Plates). Tissue lysates (5 μg of protein) were preincubated in 0.1 M PBS, pH 6.5. The reaction was initiated by adding DME to a final concentration of 5 μM in a final volume of 200 μL. The hydrolysis of DME was allowed to proceed for 20 min at 37 °C. The formed D-luciferin was quantitated by an injection of 73 μL of the luciferase detection reagent [3 μg of rLuciferase, 50 nmol of ATP, and 50 nmol of MgCl2 in PBS], and the luminescence was measured immediately with a Victor^2 Microplate Reader (560 nm, 1 s). Serial 2-fold dilutions of D-luciferin in 0.1 M PBS, pH 6.5 were used to generate the standard curve (0.156–10 μM).
(§2) Inhibitors were tested at a final concentration range of 0.4–400 μM except for PMSF (0.3–2.5 mM).

[2] = target: T1, CES1 (human liver homogenate) (Homo sapiens, UniProt P23141); assay: DME hydrolysis in human liver homogenate (positive control); assay type: in vitro ADME; conditions: 5 μM DME
T1 construct: Homogenates for rat whole eye (covered by the license # ESAVI/8621/04.10.07/2017) and human liver; from tissue; host or cells: human liver homogenate (donated, Oulu University Hospital)
Source text: (§3) CES enzymes are localized in the endoplasmic reticulum,[2],[45] but some activity resides in the cytoplasm.[46] Therefore, to prevent possible losses during sample preparation, we used whole tissue homogenates to characterize CES expression and activity in ocular tissues. The homogenization of pooled ocular tissues in 1 × DPBS buffer (3:1 v/w) was done with a Dounce homogenizer (Thomas Scientific; Swedesboro, NJ) with 5–10 strokes, depending on the ocular tissue. Aqueous humor and vitreous were homogenized without adding buffer. Tissue homogenization buffer was supplemented with protease inhibitor cocktail without phenylmethylsulfonyl fluoride (PMSF), a known inhibitor of esterases.[47],[48] After homogenization, all samples were sonicated at 750 W (Vibra-Cell VCX50 and a four-element microtip probe; Sonics & Materials Inc., Newton, CT) using four pulses of 45 s with a cooling interval of 15 s. […]
(§4) The hydrolysis of DME was monitored with slight modifications using the published bioluminescence-based assay[13],[21] where recombinant firefly luciferase enzyme was used to detect the D-luciferin that formed in the reaction mixture. […] The formed D-luciferin was quantitated by an injection of 73 μL of the luciferase detection reagent [3 μg of rLuciferase, 50 nmol of ATP, and 50 nmol of MgCl2 in PBS], and the luminescence was measured immediately with a Victor^2 Microplate Reader (560 nm, 1 s).

[3] = test system: CES1 (rat whole eye homogenate); assay: DME hydrolysis in rat whole eye homogenate (positive control); assay type: in vitro ADME; conditions: 5 μM DME
Source text: as §3, §4

rhCES1 = conditions: read-out: Km literature data, DME; cited from earlier work
[4] = test system: CES1 (pig ocular tissue homogenates); assay: DME hydrolysis in pig ocular tissue homogenates; conditions: for DME hydrolysis rate: 5 μM DME
Protocol: as §1, §2

T1 sequence (P23141 18-567): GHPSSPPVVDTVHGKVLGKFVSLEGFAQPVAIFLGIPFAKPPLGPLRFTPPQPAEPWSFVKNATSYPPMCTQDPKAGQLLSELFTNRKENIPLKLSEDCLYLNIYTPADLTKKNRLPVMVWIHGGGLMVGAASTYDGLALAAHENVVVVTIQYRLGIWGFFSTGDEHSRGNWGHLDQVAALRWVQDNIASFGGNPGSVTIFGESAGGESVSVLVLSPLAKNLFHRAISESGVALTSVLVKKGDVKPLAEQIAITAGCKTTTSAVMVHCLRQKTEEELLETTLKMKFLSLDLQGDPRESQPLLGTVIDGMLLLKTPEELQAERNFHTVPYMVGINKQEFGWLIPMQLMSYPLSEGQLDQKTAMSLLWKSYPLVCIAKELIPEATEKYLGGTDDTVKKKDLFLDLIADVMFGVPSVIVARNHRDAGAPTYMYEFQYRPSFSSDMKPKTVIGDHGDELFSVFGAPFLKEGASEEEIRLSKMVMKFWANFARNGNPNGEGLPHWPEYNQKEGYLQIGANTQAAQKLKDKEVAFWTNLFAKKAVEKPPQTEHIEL

**Q.** What does the source list for `COC(=O)[C@H]1CSC(c2nc3ccc(O)cc3s2)=N1` [DME, D-luciferin methyl ester]?
**A.** DME hydrolysis rate ([1]; rabbit RPE and retina): 0.1 to 0.5 nmol/min/mg; DME hydrolysis rate ([1]; rabbit aqueous humor and vitreous): 0.5 to 1.0 nmol/min/mg; DME hydrolysis rate ([1]; rabbit conjunctiva, cornea and choroid): ≥ 1 nmol/min/mg; Km ([1]; read-out: Km (this study), DME hydrolysis in rabbit cornea): 2.5 ± 0.8 µM; DME hydrolysis rate [2]: 3.6 ± 0.7 nmol/min/mg; DME hydrolysis rate [3]: 2.6 ± 0.2 nmol/min/mg; Km (rhCES1): ~5 µM; DME hydrolysis rate ([4]; pig RPE, aqueous humor and vitreous): 0.1 to 0.2 nmol/min/mg; DME hydrolysis rate ([4]; pig conjunctiva, cornea and choroid): ≥ 1 nmol/min/mg; DME hydrolysis rate ([4]; pig retina): 0.5 to 1 nmol/min/mg; Km ([4]; read-out: Km (this study), DME hydrolysis in pig cornea): 2.7 ± 1.3 µM
